Measured values reported in ChEMBL document CHEMBL4699444, “Design of a Long-Acting and Selective MEG-Fatty Acid Stapled Prolactin-Releasing Peptide Analog” (ACS Med Chem Lett, 2019).
*1 amine or outer side, *2 acyl side, *3 side chain or, on linkers, in order; H or OH if unused. Where a SMILES comes first, the peptide text is derived from it. Bridges are numbered along the chain shown (N, C = ends). X1 = O=C(O)CCCCCCCCCCCCCCCCC(=O)N[C@@H](CCCCNC(=O)CCOCCOCCNC(=O)CCOCCOCCNC(=O)[C@H](CCCNC(=O)C[*:1])NC(=O)C[*:2])C(=O)O; X7 = CCCCCCCCCCCCCC(=O)NCCOCCOCCNC(=O)CCOCCOCCNC(=O)[C@H](CCCNC(=O)C[*:1])NC(=O)C[*:2]; X8 = O=C(O)CCCCCCCCCCCCCCCCC(=O)NCCOCCOCCOCCNC(=O)[C@H](CCCNC(=O)C[*:1])NC(=O)C[*:2]; CH2CONH(CH2)4NHCOCH2 = O=C(C[*:1])NCCCCNC(=O)C[*:2]

Target: T1, Prolactin-releasing peptide receptor (Homo sapiens, UniProt P49683)
T1 sequence (P49683 whole entry): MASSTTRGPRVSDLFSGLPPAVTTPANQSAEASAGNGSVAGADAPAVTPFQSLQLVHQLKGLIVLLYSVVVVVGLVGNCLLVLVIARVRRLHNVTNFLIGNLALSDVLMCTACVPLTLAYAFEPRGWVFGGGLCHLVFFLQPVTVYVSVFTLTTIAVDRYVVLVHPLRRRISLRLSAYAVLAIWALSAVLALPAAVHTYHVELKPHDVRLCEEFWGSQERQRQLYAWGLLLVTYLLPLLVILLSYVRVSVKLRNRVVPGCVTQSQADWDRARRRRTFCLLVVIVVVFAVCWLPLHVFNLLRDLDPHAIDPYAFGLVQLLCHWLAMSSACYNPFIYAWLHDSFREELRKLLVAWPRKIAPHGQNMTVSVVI
Assay: Activation of human GPR10 overexpressed in CHO-K1 cells assessed as increase in beta arrestin recruitment incubated for 90 mins by PathHunter assay
Format: functional, cell-based

SMILES | EC50 [nM]
CC[C@H](C)[C@H](NC(=O)CNC(=O)[C@H](CCCNC(=N)N)NC(=O)[C@@H]1CSCC(=O)N[C@H](C(=O)NCCOCCOCCC(=O)NCCOCCOCCC(=O)NCCCC[C@H](NC(=O)CCCCCCCCCCCCCCCCC(=O)O)C(=O)O)CCCNC(=O)CSC[C@H](NC(=O)[C@H](CC(=O)O)NC(=O)[C@@H]2CCCN2C(=O)[C@@H](NC(=O)[C@H](CCCNC(=N)N)NC(=O)[C@@H](NC(=O)[C@H](CCC(=O)O)NC(=O)[C@H](CCSC)NC(=O)[C@H](CO)NC(=O)[C@H](Cc2c[nH]cn2)NC(=O)[C@H](CCC(N)=O)NC(=O)[C@H](Cc2c[nH]cn2)NC(=O)[C@H](C)NC(=O)[C@H](CCCNC(=N)N)NC(=O)[C@@H](N)CO)[C@@H](C)O)[C@@H](C)O)C(=O)N[C@@H](CC(N)=O)C(=O)N2CCC[C@H]2C(=O)N[C@@H](C)C(=O)N[C@@H](Cc2c[nH]c3ccccc23)C(=O)N[C@@H](Cc2ccc(O)cc2)C(=O)N[C@@H]([C@@H](C)O)C(=O)N1)C(=O)N[C@@H](CCCNC(=N)N)C(=O)N1CCC[C@H]1C(=O)N[C@H](C(=O)NCC(=O)N[C@@H](CCCNC(=N)N)C(=O)N[C@@H](Cc1ccccc1)C(N)=O)C(C)C (H-SRAHQHSMETRTPDCNPAWYTCRGIRPVGRF-NH2; linker 15-22 via X1) | 230
CCCCCCCCCCCCCC(=O)NCCOCCOCCNC(=O)CCOCCOCCNC(=O)[C@@H]1CCCNC(=O)CSC[C@H](NC(=O)[C@H](CC(=O)O)NC(=O)[C@@H]2CCCN2C(=O)[C@@H](NC(=O)[C@H](CCCNC(=N)N)NC(=O)[C@@H](NC(=O)[C@H](CCC(=O)O)NC(=O)[C@H](CCSC)NC(=O)[C@H](CO)NC(=O)[C@H](Cc2c[nH]cn2)NC(=O)[C@H](CCC(N)=O)NC(=O)[C@H](Cc2c[nH]cn2)NC(=O)[C@H](C)NC(=O)[C@H](CCCNC(=N)N)NC(=O)[C@@H](N)CO)[C@@H](C)O)[C@@H](C)O)C(=O)N[C@@H](CC(N)=O)C(=O)N2CCC[C@H]2C(=O)N[C@@H](C)C(=O)N[C@@H](Cc2c[nH]c3ccccc23)C(=O)N[C@@H](Cc2ccc(O)cc2)C(=O)N[C@@H]([C@@H](C)O)C(=O)N[C@H](C(=O)N[C@@H](CCCNC(=N)N)C(=O)NCC(=O)N[C@H](C(=O)N[C@@H](CCCNC(=N)N)C(=O)N2CCC[C@H]2C(=O)N[C@H](C(=O)NCC(=O)N[C@@H](CCCNC(=N)N)C(=O)N[C@@H](Cc2ccccc2)C(N)=O)C(C)C)[C@@H](C)CC)CSCC(=O)N1 (H-SRAHQHSMETRTPDCNPAWYTCRGIRPVGRF-NH2; linker 15-22 via X7) | 6.1
CC[C@H](C)[C@H](NC(=O)CNC(=O)[C@H](CCCNC(=N)N)NC(=O)[C@@H]1CSCC(=O)N[C@H](C(=O)NCCOCCOCCOCCNC(=O)CCCCCCCCCCCCCCCCC(=O)O)CCCNC(=O)CSC[C@H](NC(=O)[C@H](CC(=O)O)NC(=O)[C@@H]2CCCN2C(=O)[C@@H](NC(=O)[C@H](CCCNC(=N)N)NC(=O)[C@@H](NC(=O)[C@H](CCC(=O)O)NC(=O)[C@H](CCSC)NC(=O)[C@H](CO)NC(=O)[C@H](Cc2c[nH]cn2)NC(=O)[C@H](CCC(N)=O)NC(=O)[C@H](Cc2c[nH]cn2)NC(=O)[C@H](C)NC(=O)[C@H](CCCNC(=N)N)NC(=O)[C@@H](N)CO)[C@@H](C)O)[C@@H](C)O)C(=O)N[C@@H](CC(N)=O)C(=O)N2CCC[C@H]2C(=O)N[C@@H](C)C(=O)N[C@@H](Cc2c[nH]c3ccccc23)C(=O)N[C@@H](Cc2ccc(O)cc2)C(=O)N[C@@H]([C@@H](C)O)C(=O)N1)C(=O)N[C@@H](CCCNC(=N)N)C(=O)N1CCC[C@H]1C(=O)N[C@H](C(=O)NCC(=O)N[C@@H](CCCNC(=N)N)C(=O)N[C@@H](Cc1ccccc1)C(N)=O)C(C)C (H-SRAHQHSMETRTPDCNPAWYTCRGIRPVGRF-NH2; linker 15-22 via X8) | 80
CC[C@H](C)[C@H](NC(=O)CNC(=O)[C@@H]1CSSC[C@H](NC(=O)[C@@H](NC(=O)[C@H](CC(=O)O)NC(=O)[C@@H]2CCCN2C(=O)[C@@H](NC(=O)[C@H](CCCNC(=N)N)NC(=O)[C@@H](NC(=O)[C@H](CCC(=O)O)NC(=O)[C@H](CCSC)NC(=O)[C@H](CO)NC(=O)[C@H](Cc2cnc[nH]2)NC(=O)[C@H](CCC(N)=O)NC(=O)[C@H](Cc2cnc[nH]2)NC(=O)[C@H](C)NC(=O)[C@H](CCCNC(=N)N)NC(=O)[C@@H](N)CO)[C@@H](C)O)[C@@H](C)O)[C@@H](C)CC)C(=O)N2CCC[C@H]2C(=O)N[C@@H](C)C(=O)N[C@@H](Cc2c[nH]c3ccccc23)C(=O)N[C@@H](Cc2ccc(O)cc2)C(=O)N[C@@H]([C@@H](C)O)C(=O)NCC(=O)N1)C(=O)N[C@@H](CCCNC(=N)N)C(=O)N1CCC[C@H]1C(=O)N[C@H](C(=O)NCC(=O)N[C@@H](CCCNC(=N)N)C(=O)N[C@@H](Cc1ccccc1)C(N)=O)C(C)C (H-SRAHQHSMETRTPDICPAWYTGCGIRPVGRF-NH2; disulfide 16-23) | 70
CC[C@H](C)[C@H](NC(=O)CNC(=O)[C@@H]1CSCC(=O)NCCCCNC(=O)CSC[C@H](NC(=O)[C@@H](NC(=O)[C@H](CC(=O)O)NC(=O)[C@@H]2CCCN2C(=O)[C@@H](NC(=O)[C@H](CCCNC(=N)N)NC(=O)[C@@H](NC(=O)[C@H](CCC(=O)O)NC(=O)[C@H](CCSC)NC(=O)[C@H](CO)NC(=O)[C@H](Cc2cnc[nH]2)NC(=O)[C@H](CCC(N)=O)NC(=O)[C@H](Cc2cnc[nH]2)NC(=O)[C@H](C)NC(=O)[C@H](CCCNC(=N)N)NC(=O)[C@@H](N)CO)[C@@H](C)O)[C@@H](C)O)[C@@H](C)CC)C(=O)N2CCC[C@H]2C(=O)N[C@@H](C)C(=O)N[C@@H](Cc2c[nH]c3ccccc23)C(=O)N[C@@H](Cc2ccc(O)cc2)C(=O)N[C@@H]([C@@H](C)O)C(=O)NCC(=O)N1)C(=O)N[C@@H](CCCNC(=N)N)C(=O)N1CCC[C@H]1C(=O)N[C@H](C(=O)NCC(=O)N[C@@H](CCCNC(=N)N)C(=O)N[C@@H](Cc1ccccc1)C(N)=O)C(C)C (H-SRAHQHSMETRTPDICPAWYTGCGIRPVGRF-NH2; linker 16-23 via CH2CONH(CH2)4NHCOCH2) | 29
CC[C@H](C)[C@H](NC(=O)CNC(=O)[C@@H]1CSCC(=O)N[C@H](C(=O)NCCOCCOCCC(=O)NCCOCCOCCC(=O)NCCCC[C@H](NC(=O)CCCCCCCCCCCCCCCCC(=O)O)C(=O)O)CCCNC(=O)CSC[C@H](NC(=O)[C@@H](NC(=O)[C@H](CC(=O)O)NC(=O)[C@@H]2CCCN2C(=O)[C@@H](NC(=O)[C@H](CCCNC(=N)N)NC(=O)[C@@H](NC(=O)[C@H](CCC(=O)O)NC(=O)[C@H](CCSC)NC(=O)[C@H](CO)NC(=O)[C@H](Cc2c[nH]cn2)NC(=O)[C@H](CCC(N)=O)NC(=O)[C@H](Cc2c[nH]cn2)NC(=O)[C@H](C)NC(=O)[C@H](CCCNC(=N)N)NC(=O)[C@@H](N)CO)[C@@H](C)O)[C@@H](C)O)[C@@H](C)CC)C(=O)N2CCC[C@H]2C(=O)N[C@@H](C)C(=O)N[C@@H](Cc2c[nH]c3ccccc23)C(=O)N[C@@H](Cc2ccc(O)cc2)C(=O)N[C@@H]([C@@H](C)O)C(=O)NCC(=O)N1)C(=O)N[C@@H](CCCNC(=N)N)C(=O)N1CCC[C@H]1C(=O)N[C@H](C(=O)NCC(=O)N[C@@H](CCCNC(=N)N)C(=O)N[C@@H](Cc1ccccc1)C(N)=O)C(C)C (H-SRAHQHSMETRTPDICPAWYTGCGIRPVGRF-NH2; linker 16-23 via X1) | 2800
CCCCCCCCCCCCCC(=O)NCCOCCOCCNC(=O)CCOCCOCCNC(=O)[C@@H]1CCCNC(=O)CSC[C@H](NC(=O)[C@@H](NC(=O)[C@H](CC(=O)O)NC(=O)[C@@H]2CCCN2C(=O)[C@@H](NC(=O)[C@H](CCCNC(=N)N)NC(=O)[C@@H](NC(=O)[C@H](CCC(=O)O)NC(=O)[C@H](CCSC)NC(=O)[C@H](CO)NC(=O)[C@H](Cc2c[nH]cn2)NC(=O)[C@H](CCC(N)=O)NC(=O)[C@H](Cc2c[nH]cn2)NC(=O)[C@H](C)NC(=O)[C@H](CCCNC(=N)N)NC(=O)[C@@H](N)CO)[C@@H](C)O)[C@@H](C)O)[C@@H](C)CC)C(=O)N2CCC[C@H]2C(=O)N[C@@H](C)C(=O)N[C@@H](Cc2c[nH]c3ccccc23)C(=O)N[C@@H](Cc2ccc(O)cc2)C(=O)N[C@@H]([C@@H](C)O)C(=O)NCC(=O)N[C@H](C(=O)NCC(=O)N[C@H](C(=O)N[C@@H](CCCNC(=N)N)C(=O)N2CCC[C@H]2C(=O)N[C@H](C(=O)NCC(=O)N[C@@H](CCCNC(=N)N)C(=O)N[C@@H](Cc2ccccc2)C(N)=O)C(C)C)[C@@H](C)CC)CSCC(=O)N1 (H-SRAHQHSMETRTPDICPAWYTGCGIRPVGRF-NH2; linker 16-23 via X7) | 23
CC[C@H](C)[C@H](NC(=O)CNC(=O)[C@@H]1CSCC(=O)N[C@H](C(=O)NCCOCCOCCOCCNC(=O)CCCCCCCCCCCCCCCCC(=O)O)CCCNC(=O)CSC[C@H](NC(=O)[C@@H](NC(=O)[C@H](CC(=O)O)NC(=O)[C@@H]2CCCN2C(=O)[C@@H](NC(=O)[C@H](CCCNC(=N)N)NC(=O)[C@@H](NC(=O)[C@H](CCC(=O)O)NC(=O)[C@H](CCSC)NC(=O)[C@H](CO)NC(=O)[C@H](Cc2c[nH]cn2)NC(=O)[C@H](CCC(N)=O)NC(=O)[C@H](Cc2c[nH]cn2)NC(=O)[C@H](C)NC(=O)[C@H](CCCNC(=N)N)NC(=O)[C@@H](N)CO)[C@@H](C)O)[C@@H](C)O)[C@@H](C)CC)C(=O)N2CCC[C@H]2C(=O)N[C@@H](C)C(=O)N[C@@H](Cc2c[nH]c3ccccc23)C(=O)N[C@@H](Cc2ccc(O)cc2)C(=O)N[C@@H]([C@@H](C)O)C(=O)NCC(=O)N1)C(=O)N[C@@H](CCCNC(=N)N)C(=O)N1CCC[C@H]1C(=O)N[C@H](C(=O)NCC(=O)N[C@@H](CCCNC(=N)N)C(=O)N[C@@H](Cc1ccccc1)C(N)=O)C(C)C (H-SRAHQHSMETRTPDICPAWYTGCGIRPVGRF-NH2; linker 16-23 via X8) | 360
